{"source": "paper PMC7044277", "about": "(Nature Communications, 2020)", "assay_type_in_all_cases": "cell-based", "key": {"[1]": {"target": "T1, 320 non-olfactory GPCRs (Homo sapiens, UniProt O00421)", "T1 construct": "expressed in transfected cells; host or cells: HTLA cells", "T1 sequence (O00421 whole entry)": "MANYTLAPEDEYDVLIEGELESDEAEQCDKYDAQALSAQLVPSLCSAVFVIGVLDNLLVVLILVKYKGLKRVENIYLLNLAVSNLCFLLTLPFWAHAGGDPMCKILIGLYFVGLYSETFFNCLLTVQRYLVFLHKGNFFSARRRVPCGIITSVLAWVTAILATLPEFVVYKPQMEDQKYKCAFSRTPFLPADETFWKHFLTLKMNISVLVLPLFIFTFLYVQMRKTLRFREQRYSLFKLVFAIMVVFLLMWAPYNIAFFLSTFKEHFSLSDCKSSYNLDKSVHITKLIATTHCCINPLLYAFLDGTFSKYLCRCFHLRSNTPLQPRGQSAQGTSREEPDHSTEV"}, "[2]": {"target": "320 non-olfactory GPCRs (Homo sapiens, UniProt O43193)", "sequence (O43193 whole entry)": "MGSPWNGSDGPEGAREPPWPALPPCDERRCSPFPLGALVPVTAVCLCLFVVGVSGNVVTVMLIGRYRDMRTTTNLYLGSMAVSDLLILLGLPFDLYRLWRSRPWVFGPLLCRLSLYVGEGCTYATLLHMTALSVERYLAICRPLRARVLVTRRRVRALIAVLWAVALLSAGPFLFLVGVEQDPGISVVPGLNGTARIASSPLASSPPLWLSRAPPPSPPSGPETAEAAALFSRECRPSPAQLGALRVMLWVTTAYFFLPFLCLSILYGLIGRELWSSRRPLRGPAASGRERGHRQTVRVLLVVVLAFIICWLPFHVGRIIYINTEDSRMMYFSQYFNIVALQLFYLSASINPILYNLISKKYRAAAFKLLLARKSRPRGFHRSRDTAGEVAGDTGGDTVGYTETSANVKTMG", "conditions": "receptor MLNR; replicate values, Fig_4g"}, "[3]": {"target": "T2, 320 non-olfactory GPCRs (Homo sapiens, UniProt P30559)", "T2 construct": "expressed in transfected cells; host or cells: HTLA cells", "T2 sequence (P30559 whole entry)": "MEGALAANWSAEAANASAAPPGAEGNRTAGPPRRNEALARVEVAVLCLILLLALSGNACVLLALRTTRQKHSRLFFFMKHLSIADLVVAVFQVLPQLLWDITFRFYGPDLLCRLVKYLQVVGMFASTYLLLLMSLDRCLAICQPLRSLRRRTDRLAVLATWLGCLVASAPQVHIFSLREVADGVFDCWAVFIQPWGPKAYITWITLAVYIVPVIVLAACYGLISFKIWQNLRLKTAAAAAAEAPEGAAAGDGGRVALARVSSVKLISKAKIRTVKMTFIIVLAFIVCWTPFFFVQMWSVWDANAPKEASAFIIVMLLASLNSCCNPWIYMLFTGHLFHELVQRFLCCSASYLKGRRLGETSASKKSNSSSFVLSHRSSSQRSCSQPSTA", "conditions": "receptor OXTR; replicate values, Fig_4g"}, "[4]": {"target": "320 non-olfactory GPCRs (Homo sapiens, UniProt P32239)", "sequence (P32239 whole entry)": "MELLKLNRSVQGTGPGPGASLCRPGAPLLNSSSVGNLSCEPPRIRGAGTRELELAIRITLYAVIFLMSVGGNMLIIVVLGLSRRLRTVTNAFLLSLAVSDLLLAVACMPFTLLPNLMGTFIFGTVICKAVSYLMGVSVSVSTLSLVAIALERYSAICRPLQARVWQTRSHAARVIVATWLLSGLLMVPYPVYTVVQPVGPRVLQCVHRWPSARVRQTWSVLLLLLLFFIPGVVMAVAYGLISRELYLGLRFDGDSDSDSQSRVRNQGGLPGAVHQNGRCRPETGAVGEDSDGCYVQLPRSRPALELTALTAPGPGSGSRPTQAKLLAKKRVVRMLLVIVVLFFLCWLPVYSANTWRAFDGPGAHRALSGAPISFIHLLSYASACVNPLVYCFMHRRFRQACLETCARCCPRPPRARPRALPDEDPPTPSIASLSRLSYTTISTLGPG"}}, "note": "Several values for one entry are separate records, joined by “and”; a condition that tells them apart may be missing. Equal entries are not always repeated.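 Throughout, for Fold of Basal: compound tested at 1 µM final concentration.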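 Throughout, for GPCRome agonism screen response: fold over basal response of each receptor without drug.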", "data": [{"smiles": "CCOc1cccc2cc(C(C)NCC3(O)CCCCC3)oc12", "note": "(stereo not shown) [O4LE6]", "values": [{"measurement": "Fold of Basal", "setting": "[1]", "result": "1.0982 and 0.8519 and 0.828 and 1.211"}, {"measurement": "GPCRome agonism screen response", "setting": "[2]", "result": "1.48 and 1.279 and 0.7077 and 1.039"}, {"measurement": "GPCRome agonism screen response", "setting": "[3]", "result": "1.578 and 1.894 and 1.457 and 1.467"}, {"measurement": "Fold of Basal", "setting": "[4]", "result": "1.067 and 0.8402 and 0.8391 and 1.015"}]}]}
